Design in all cases: expressed in transfected cells; host or cells: CHO-K1 expressing apoaequorin (CHO-Aeq) with Gqi5; line E2
The target in test [1] is T1, hEBI2 (Homo sapiens, UniProt P32249). Nature of the test: calcium fluorescence (FLIPR). Format: cell-based. On the procedure:
If not stated otherwise compounds were dissolved at 10 mM in DMSO or ethanol (cholesterol, 25MDC). Serial dilutions were carried out in 90% DMSO (FLIPR, GTPgS) or assay buffer (binding assay). For cell based assays final DMSO concentrations is kept below 1%.
If not stated otherwise, the same Chinese hamster ovary (CHO) cell line called E2 which was used for the ligand identification was used in these experiments. This cell line is expressing (1) the recombinant human EBI2 receptor, (2) the promiscuous Gqi5 protein as well as (3) apo-aequorin.
Cells were seeded in black/clear bottom, poly-D-Lysine coated 384-well plates at a cell density of 10,000 cells/25 μL/well, using culture medium. Cells were cultured for 24 hours at 37° C./5% CO2. Culture medium was removed and for cell loading, 20 μl per well of loading buffer (Calcium-4 no wash dye) were distributed into the wells and the plates were incubated for 60 min at 37° C. in 5% CO2. With the FLIPR pipettor, 10 μl of the different compounds were added to the cells and the subsequent fluorescent changes monitored for 3 minutes. Using the FLIPR software tool, 2 values of fluorescence calcium responses were exported: Fmax, the fluorescence at the peak and Fbasal corresponding to the value prior to compound injection. From these two values, the calcium response is normalized with respect to the calcium baseline values using dF/F=(Fmax−Fbasal)/Fbasal. The maximum dF/F is called Emax.

Test [2] concerns the target T1, hEBI2. Nature of the test: GTPγS assay on EBI2 membranes. The test is classed as biochemical. On the procedure:
(§1) The cell suspension was then homogenized using a Dounce homogenizer (10 strokes) with a driller. After centrifugation at 110000×g for 45 minutes and removal of the supernatant, pellets were resuspended in sucrose buffer (50 mM Tris pH7.2, 250 mM sucrose, 10% glycerol) by vortexing. The suspension was again homogenize using a Dounce homogenizer (10 strokes) and spun at 100000×g for 45 minutes. The supernatant was discarded, the pellet resuspended in sucrose buffer, protein concentration determined, aliquoted and frozen at −80° C. These membrane preparations were used in binding as well as GTPgS assays.
Ten micrograms of EBI2 membranes are dissolved in 40 μl of buffer A (20 mM Hepes pH 7.4, 100 mM NaCl, 1.5 mM MgCl2, Saponin 10 μg/ml) supplemented with 10 μM GDP. After addition of […] scintilation proximity assay (SPA) beads (100 μg/well, Amersham, RPNQ0001) components are gently mixed and incubated at RT for 15 minutes. Twenty microliters of compound diluted in buffer A and 20 μl of GTPγ^35S (Perkin Elmer NEG030X) is added before incubation for one hour at RT. Plates are transferred and counted in a TopCount (Perkin Elmer NXT HTS™) and counts are analysed plotted and to determine half maximal concentrations of activation using standard software (Prism™, GraphPad Software Inc.).

Test [3] deals with T1, hEBI2. The experiment in a line: [3H] 7a,25DHC radio-ligand binding assay (SPA), IC50 determination. The protocol:
as §1
Lyophilized wheat germ agglutinin scintilation proximity assay (SPA) beads (RPNQ0001) were purchased from GE Healthcare (Buckinghamshire, UK). One vial (500 mg) is reconstituted by adding 5 mL of distilled water to give a final concentration of 100 mg/mL. Reconstituted SPA beads must be stored at 4° C., but must not be frozen. [3H]-7a,25-OHC, was synthesized by reduction of the 7-keto, 25DHC in the presence of 3H-L-selectride.
The SPA assay was performed in a final volume of 50 μl per well in a 384-well polystyrene Opti plate. The components were added into the wells as follows: • 10 μl tested compounds in 50 mM Tris; 100 mM NaCl; 5 mM MgCl2 and 0.1% Cyclodextrine.
Total binding was determined by the addition of 10 μl of 50 mM Tris; 100 mM NaCl; 5 mM MgCl2 and 0.1% Cyclodextrine and non-specific binding was determined by the addition of 10 μl NVP-BYX998-NX-4 (final concentration of 10 μM). • 20 μL of 10 nM final [3H]-BYX998 in assay buffer (50 mM Tris-HCl, 100 mM NaCl, 5 mM MgCl2 and 0.1% Cyclodextrine). • 20 μL of a mixed bead and membrane suspension in assay buffer, in order to get a final concentration of 20 μg membranes/well and 200 μg beads/well.
The plates were sealed and shaken at room temperature for 10 minutes then allowed to stand at room temperature for at least 12 hours. The plates were counted using a Perkin Elmer TopCount reader, each well being counted for 1 minute.
Each IC50 determination was performed with 11 concentrations.
A standard data reduction algorithm was used to calculate the percentage of specific binding in the presence of test compound as follows: ((B−NSB)/(Total−NSB))·100, where B=Binding in the presence of test compound (in cpm) NSB=Non-specific binding in the presence of excess inhibitor (in cpm) Total=Binding in the absence of test compound (in cpm) Curve fitting of the normalized concentration response curves using a four parameter logistic fit is then performed using XLfit (v.2 or v.4, IDBS, Guildford, UK). The equation used is XLfit equation no. […] By default, min is fixed at 0, whereas max is not fixed.

[4] abbreviates: 10 nM radioligand, n = 3, read-out: [^3H] 7a,25DHC Binding IC50.

Like-named read-outs stand apart in the source and are kept apart here.

T1 sequence (P32249 whole entry): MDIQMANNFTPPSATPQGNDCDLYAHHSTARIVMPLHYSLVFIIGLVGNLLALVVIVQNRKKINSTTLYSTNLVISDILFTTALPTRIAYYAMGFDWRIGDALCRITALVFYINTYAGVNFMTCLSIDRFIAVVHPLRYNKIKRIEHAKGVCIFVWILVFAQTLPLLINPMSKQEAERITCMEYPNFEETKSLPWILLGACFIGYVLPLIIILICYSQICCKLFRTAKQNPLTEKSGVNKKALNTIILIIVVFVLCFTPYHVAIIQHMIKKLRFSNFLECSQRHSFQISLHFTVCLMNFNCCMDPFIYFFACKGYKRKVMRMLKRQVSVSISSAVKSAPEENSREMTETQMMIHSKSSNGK

On to `C[C@H](CCCC(C)(C)O)[C@H]1CC[C@H]2[C@@H]3[C@H](O)C=C4C[C@@H](O)CC[C@]4(C)[C@H]3CC[C@]12C` [7a,25DHC, cholest-5-ene-3b,7a,25-triol], for which the 50% effective concentration (EC50) on hEBI2 [1] stood at 1.9 nM; at hEBI2 [2], 7.5 nM. Besides, on hEBI2 [3] (setting [4]), the 50% inhibitory concentration (IC50) was found to be 70.4 nM.

Take `CC(CO)CCC[C@@H](C)[C@H]1CC[C@H]2[C@@H]3[C@H](O)C=C4C[C@@H](O)CC[C@]4(C)[C@H]3CC[C@]12C` (stereo partly drawn) [7a,27DHC, cholest-5-ene-3b,7a,27-triol]: the 50% effective concentration (EC50) at hEBI2 [1] was found to be 4.8 nM; on hEBI2 [2], 5.1 nM. The same compound gave an IC50 on hEBI2 [3] of 362 nM.

As to `C[C@H](CCCC(C)(C)O)[C@H]1CC[C@H]2[C@@H]3[C@@H](O)C=C4C[C@@H](O)CC[C@]4(C)[C@H]3CC[C@]12C` [7b,25DHC, cholest-5-ene-3b,7b,25-triol], the 50% effective concentration (EC50) is 121 nM at hEBI2 [1] (n = 3-4, read-out: FLIPR EC50) and 221 nM at hEBI2 [2] (n = 3-4, read-out: GTPgS EC50). At hEBI2 [3] (setting [4]), the half-maximal inhibitory concentration (IC50) worked out at 2630 nM.

A word on the EC50: it is the concentration giving half of the maximal effect. The IC50 is the midpoint of a concentration-inhibition curve.
